These results are taken from ChEMBL document CHEMBL6153030, “Design, synthesis, and biological evaluation of novel pleuromutilin derivatives with methicillin-resistant Staphylococcus aureus -targeting phenol linker groups” (Eur J Med Chem, 2025).

In brackets after ≈: the same amount, converted by molar mass. Activity calls are given as the source filed them. No cut-off for these calls is given here. Bounds are passed on as bounds.

By LC50 is commonly meant the concentration that kills 50% of the test population. Broadly, the ED50 is the dose that gives a 50% effect, or the effect in half of the subjects. The MIC is the lowest concentration that inhibits growth of the organism.

The test system of one series is HepG2. In words: Cytotoxicity against human HepG2 cells assessed as reduction in cell survival at 250 ug/ml incubated for 6 hrs by CCK8 assay. The class given is toxicity, cell-based. The note with it: hepg2, 6 h, dose 250 µg/ml.
Series [1] in a line: Toxicity against Zebrafish assessed as reduction of survival of embryos measured after 96 hrs. The arrangement: species or system Danio rerio. As to conditions: in vivo.
For another series, the system named is HEK293. In words: Cytotoxicity against HEK293 cells assessed as reduction in cell survival upto 120 ug/ml incubated for 6 hrs by CCK8 assay. As to conditions: human, hek293, 6 h, dose < 120 µg/ml. Type of series: toxicity, cell-based.
Series [2] has as its system Staphylococcus aureus. Description: In vivo antibacterial activity against methicillin-resistant Staphylococcus aureus ATCC43300 infected in Kunming mouse assessed as increase in animal survival rate administered ip at 1 hr post-infection. The class given is functional. As to conditions: ATCC43300, 1 h.
The test system of series [3] is Staphylococcus aureus. Description: Antibacterial activity against methicillin-resistant Staphylococcus aureus ATCC43300 assessed as inhibition of bacterial growth incubated for 96 hrs by broth microdilution method. The class given is functional. A general note: Broth dilution looks for growth in wells or tubes with falling amounts of substance.
The test system of series [4] is Staphylococcus aureus. In words: Antibacterial activity against Staphylococcus aureus ATCC 29213 assessed as inhibition of bacterial growth incubated for 96 hrs by broth microdilution method. The class given is functional.
A further series deals with Escherichia coli. In words: Antibacterial activity against Escherichia coli ATCC 25922 assessed as inhibition of bacterial growth incubated for 96 hrs by broth microdilution method. The class given is functional.
The subject of series [5] is Staphylococcus aureus. Description: Antibacterial activity against methicillin-resistant Staphylococcus aureus ATCC43300 assessed as inhibition of bacterial growth measured on day 8. The class given is functional. As to conditions: ATCC43300, 192 h, time 8 day.
A further series has as its system Streptococcus pneumoniae. Description: Antibacterial activity against Streptococcus pneumoniae ATCC 49619 assessed as inhibition of bacterial growth incubated for 96 hrs by broth microdilution method. The class given is functional.
The subject of series [6] is Staphylococcus aureus. Description: Antibacterial activity against methicillin-resistant Staphylococcus aureus ATCC43300 assessed as inhibition of bacterial growth measured on day 20. The class given is functional. As to conditions: ATCC43300, 480 h, time 20 day.
Series [7] has as its system Staphylococcus epidermidis. In words: Antibacterial activity against methicillin-resistant Staphylococcus epidermidis ATCC 51625 assessed as inhibition of bacterial growth incubated for 96 hrs by broth microdilution method. Type of series: functional.
Series [8] deals with Staphylococcus aureus. In words: Bactericidal activity against methicillin-resistant Staphylococcus aureus ATCC 43300 assessed as log reduction of bacterial colonies at 3XMIC incubated for 96 hrs in broth followed by culturing on agar plate for 4 hrs by time-kill kinetics analysis. Type of series: functional. The note with it: time 100 hrs.
Series [9] relates to Staphylococcus aureus. In words: Antibacterial activity against methicillin-resistant Staphylococcus aureus ATCC43300 assessed as inhibition of bacterial growth measured after 17 to 18 days. Type of series: functional. As to conditions: time 17-18 day.
Series [10] has as its target T1, 70S ribosome (Staphylococcus aureus) (UniProt Q2FW31+P0A0H0+Q2FW30+Q2FW19+Q2FYU5+Q2G2Q1+Q2FZ45+Q2FW15+Q2G111+Q2FW10+Q2FXY6+Q2FXZ7+Q2FZ25+Q2FW12+Q2FXK6+Q2FW23+Q2G113+P48940+Q2FW20+Q2FW39+Q2FYF9+Q2G0N9+P0A0F4+Q2FW38+Q2FW16+P0A0F8+Q2FW13+Q2FW33+Q2FW22+Q2FZ42+Q2G0P0+Q2FXQ1+Q2FXS8+Q2FW11+Q2FW08+Q2FW17+Q2FXT0+Q2FZ60+Q2FW14+P60430+P0A0G2+Q2FWD8+Q2FZF1+Q2FYU6+Q2FY22+Q2FUQ0+Q2FXQ0+Q2FW29+Q2FW06+Q2FW07+Q2FW18+Q2FW21+P48860+Q2G2T3). In words: Inhibition of ribosomal peptidyl transferase centre in methicillin-resistant Staphylococcus aureus ATCC43300 assessed as inhibition of bacterial cell division at 4XMIC by scanning electron microscopy. Type of series: functional.

The subject of series [11] is Staphylococcus aureus. In words: In vivo antibacterial activity against methicillin-resistant Staphylococcus aureus ATCC43300 infected in Kunming mouse assessed as decrease in lung lesions by measuring reduced congestion, hemorrhage and inflammatory cell infiltration at 40 mg/kg, ip administered at 1 hr post-infection. Type of series: functional, organism-based.
Series [12] has as its system Staphylococcus aureus. In words: Bactericidal activity against methicillin-resistant Staphylococcus aureus ATCC43300 assessed as bacterial killing at 3XMIC incubated for 96 hrs in broth followed by culturing on agar plate for 4 hrs by time-kill kinetics analysis. The class given is functional. The note with it: time 100 hrs.
The subject of series [13] is Staphylococcus aureus. Description: In vivo antibacterial activity against methicillin-resistant Staphylococcus aureus ATCC43300 infected in Kunming mouse assessed as decrease in bacterial load in lungs at 20 to 40 mg/kg, ip administered at 1 hr post-infection. Type of series: functional, organism-based. The note with it: dose 20-40 mg/kg.
The nature of series [14]: Toxicity against zebrafish embryo assessed as teratogenic effect at 128 ug/ml measured after 96 hrs by microscopic analysis. As to conditions: in vivo, dose 128 µg/ml. On the set-up: species or system Danio rerio.
Series [15] relates to Staphylococcus aureus. Description: In vivo antibacterial activity against methicillin-resistant Staphylococcus aureus ATCC43300 infected in Kunming mouse assessed as log reduction of bacterial load in lungs at 40 mg/kg, ip administered at 1 hr post-infection and measured within 48 hrs. The class given is functional.
In series [16] the target is T1, 70S ribosome (Staphylococcus aureus). Description: Inhibition of ribosomal peptidyl transferase centre in methicillin-resistant Staphylococcus aureus ATCC43300 assessed as bacterial cell rupture at 4XMIC by scanning electron microscopy. Type of series: functional.
Series [17] relates to Staphylococcus aureus. In words: Bactericidal activity against methicillin-resistant Staphylococcus aureus ATCC 43300 assessed as bacterial killing at 6XMIC incubated for 96 hrs in broth followed by culturing on agar plate for 12 hrs by time-kill kinetics analysis. Type of series: functional. As to conditions: time 108 hrs.
Series [18] in a line: Toxicity against rabbit red blood cells assessed as hemolysis rate at 100 ug/ml by absorbance based analysis. The class given is cell-based, Oryctolagus cuniculus, Erythrocyte. As to conditions: at 100 µg/mL, read-out: Activity.
The target in series [19] is T1, 70S ribosome (Staphylococcus aureus). Description: Inhibition of ribosomal peptidyl transferase centre in methicillin-resistant Staphylococcus aureus ATCC43300 assessed as bacterial cell membrane damage at 4XMIC by scanning electron microscopy. The class given is functional.
For series [20], the system named is Staphylococcus aureus. Description: Antibacterial activity against methicillin-resistant Staphylococcus aureus ATCC43300 assessed as inhibition of bacterial growth measured after 21 days. The note with it: ATCC43300, 504 h, time 21 day. Type of series: functional.

As to `C=C[C@]1(C)C[C@@H](OC(=O)CSCCN(CC)CC)[C@]2(C)[C@H](C)CC[C@]3(CCC(=O)[C@H]32)[C@@H](C)[C@@H]1O` [TIAMULIN], the Activity result in the series with HepG2 and with HEK293 was “Toxic” throughout. In addition, in [1], the LC50 at 96 h is 24 µg/mL (≈ 48.6 µM). Also, the 50% effective dose (ED50) with Staphylococcus aureus [2] stood at 11.4 mg/kg. Also, the MIC with Staphylococcus aureus [3] was 0.5 µg/mL (≈ 1.01 µM); in the series on Staphylococcus aureus [4], 0.5 µg/mL (≈ 1.01 µM); in the series with Escherichia coli, more than 64 µg/mL; with Staphylococcus aureus [5], 8 µg/mL (≈ 16.2 µM); in the series on Streptococcus pneumoniae, 0.5 µg/mL (≈ 1.01 µM); in the series on Staphylococcus aureus [6], 32 µg/mL (≈ 64.8 µM). In [7], the minimal inhibitory concentration (MIC) was 0.25 µg/mL (≈ 0.506 µM).
Consider `C=C[C@]1(C)C[C@@H](OC(=O)CSc2ccccc2OCC(=O)N2CCS(=O)(=O)CC2)[C@]2(C)[C@H](C)CC[C@]3(CCC(=O)[C@H]32)[C@@H](C)[C@@H]1O`, for which the Activity entry in the series with HepG2 was “Toxic”; in the series with Staphylococcus aureus [8], -3.154 log10CFU/ml; in the series on HEK293, “Toxic”; with Staphylococcus aureus [12], 99.9%; with Staphylococcus aureus [13], “Dose-dependent-effect”; in series [14], “Non-toxic”. In addition, the Activity in the series with Staphylococcus aureus [15] is given as 3 log10CFU/ml; in the series with Staphylococcus aureus [17], 99.99%. In series [1], the LC50 at 96 h came to 165 µg/mL (≈ 249 µM). Besides, the MIC was 8 µg/mL (≈ 12.1 µM) in the series on Staphylococcus aureus [9]; less than 0.031 µg/mL with Staphylococcus aureus [3]; less than 0.031 µg/mL in the series with Staphylococcus aureus [4]; more than 64 µg/mL in the series on Escherichia coli; 0.125 µg/mL (≈ 0.189 µM) in the series with Streptococcus pneumoniae; less than 0.031 µg/mL in [7]. Further, in the series on Staphylococcus aureus [2], the ED50 stood at 6.48 mg/kg. Further, the inhibition result in [10] and in [16] was “Active” each time. For the same compound, in the series on Staphylococcus aureus [11], the outcome was Active. Further, the hemolysis at 100 ug/ml in [18] is less than 15%.
For `C=C[C@]1(C)C[C@@H](OC(=O)CSc2cccc(OCC(=O)N3CCS(=O)(=O)CC3)c2)[C@]2(C)[C@H](C)CC[C@]3(CCC(=O)[C@H]32)[C@@H](C)[C@@H]1O`, the Activity entry in the series with HepG2 is “Toxic”; in the series with HEK293 it was “Toxic”; in series [14] it was “Non-toxic”; with Staphylococcus aureus [17], 99.99%. The median lethal concentration (LC50) at 96 h in series [1] turned out to be 149 µg/mL (≈ 225 µM). In addition, the inhibition result in series [19] and in [10] was “Active” each time. Moreover, the MIC in the series on Staphylococcus aureus [3] is less than 0.031 µg/mL; in the series on Staphylococcus aureus [4], less than 0.031 µg/mL; in the series on Escherichia coli it was more than 64 µg/mL; in the series on Staphylococcus aureus [20], 4 µg/mL (≈ 6.04 µM); in the series with Streptococcus pneumoniae, 0.125 µg/mL (≈ 0.189 µM); in series [7] it was less than 0.031 µg/mL.
